Measured values as given in patent publication US5942631A, “Inhibitors of cholesterol esterase” (University Of New Mexico, priority 1998, dated 1999).

Biological target: T1, cholesterol esterase (CE) (Homo sapiens, UniProt P19835)
T1 sequence (P19835 21-753): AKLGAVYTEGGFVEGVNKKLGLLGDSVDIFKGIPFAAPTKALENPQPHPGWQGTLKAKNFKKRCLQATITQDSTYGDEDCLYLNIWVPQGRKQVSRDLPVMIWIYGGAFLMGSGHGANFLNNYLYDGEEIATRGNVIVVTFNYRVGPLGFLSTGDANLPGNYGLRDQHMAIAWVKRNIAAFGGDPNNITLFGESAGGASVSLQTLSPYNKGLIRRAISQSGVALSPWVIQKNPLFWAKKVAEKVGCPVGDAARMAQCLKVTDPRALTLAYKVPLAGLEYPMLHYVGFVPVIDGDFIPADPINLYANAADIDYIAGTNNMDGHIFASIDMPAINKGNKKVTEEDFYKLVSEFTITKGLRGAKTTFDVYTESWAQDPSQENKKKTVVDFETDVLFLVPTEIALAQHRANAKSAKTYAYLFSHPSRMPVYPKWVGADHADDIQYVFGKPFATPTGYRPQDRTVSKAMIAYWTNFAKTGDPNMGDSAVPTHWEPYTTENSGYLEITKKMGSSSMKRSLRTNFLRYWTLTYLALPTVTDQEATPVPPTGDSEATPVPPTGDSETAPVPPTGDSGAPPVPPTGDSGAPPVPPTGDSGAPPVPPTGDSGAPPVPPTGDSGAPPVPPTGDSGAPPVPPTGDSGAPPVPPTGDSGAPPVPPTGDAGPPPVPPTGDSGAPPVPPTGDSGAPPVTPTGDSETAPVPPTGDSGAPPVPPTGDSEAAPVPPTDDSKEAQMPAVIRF
Assay: Kinetic inhibition studies of cholesterol esterase (CE), substrate p-nitrophenylbutyrate, Dixon plots
Assay type: biochemical
Settings: for inhibition of CE: kinetic inhibition studies, result in words

inhibition of CE	Compound	mode of inhibition of CE (1/V v [I] plots intersect above the x-axis, FIG. 6)	Ki (printed as "<<30", inferred because calculated Ki equals [E]/2, read-out: actual Ki for CE (suggested))
potent inhibitors of CE	O=c1oc(Cl)ccc1CC1CCCCC1 [Example 2]		
potent inhibitors of CE	O=c1oc(Cl)ccc1CCCC1CCCCC1 [Example 4]		

Compound	inhibition of CE	mode of inhibition of CE (1/V v [I] plots intersect above the x-axis, FIG. 6)	Ki (printed as "<<30", inferred because calculated Ki equals [E]/2, read-out: actual Ki for CE (suggested))
O=c1oc(Cl)ccc1CCC1CCCCC1 [Example 3, 3-(2-cyclohexylethyl)-6-chloropyronle]	potent inhibitors of CE	competitive inhibition	< 30 nM
